Activity calls are given as the source filed them. The calls are words filed in the database; no cut-off is given here.

Assay [1] relates to Botrytis cinerea. Kind of assay: Antifungal activity against Botrytis cinerea assessed as inhibition of mycelium growth at 25 ug/ml after 48 hrs relative to control. It counts as functional.
In assay [2] the test system is Botrytis cinerea. The assay is described as follows: Antifungal activity against Botrytis cinerea assessed as inhibition of spore germination at 50 ug/ml after 6 hrs by microscopic analysis relative to control. It counts as functional.
Another assay relates to HeLa. Kind of assay: Inhibition of mTORC2 in human HeLa cells assessed as decrease in AKT phosphorylation at S473 residue preincubated for 1 hr followed by EGF1 stimulation after 30 mins by Western blot analysis. It counts as cell-based. For orientation: Immunoblotting shows a protein as a band on a membrane.
Assay [3] in a line: Inhibition of mTORC2 in human HeLa cells assessed as decrease in AKT phosphorylation at S473 residue preincubated for 1 hr followed by EGF1 stimulation by ELISA. It counts as cell-based. (In general: ELISA stands for enzyme-linked immunosorbent assay.)
Assay [4] has as its system Botrytis cinerea. Kind of assay: Antifungal activity against Botrytis cinerea assessed as inhibition of spore germination at 5 ug/ml after 6 hrs by microscopic analysis relative to control. It counts as functional.
In assay [5] the test system is Botrytis cinerea. The assay is described as follows: Antifungal activity against Botrytis cinerea assessed as inhibition of mycelium growth at 5 ug/ml after 48 hrs relative to control. It counts as functional.

One may read the inhibition as the change of the read-out against control, counted positive when it falls. On to `C=C(C)n1c(=O)n(C(=O)CCCCC)c2cc([N+](=O)[O-])ccc21`, for which the inhibition at 25 µg/mL in the assay on Botrytis cinerea [1] came out at 5.65%. The inhibition at 50 µg/mL in the assay on Botrytis cinerea [2] amounted to 42.9%. Consider `C=C(C)n1c(=O)n(C(C)=O)c2cc([N+](=O)[O-])ccc21`, for which, in the assay on Botrytis cinerea [1], the inhibition at 25 µg/mL turned out to be 33.5%. The inhibition at 50 µg/mL with Botrytis cinerea [2] worked out at 85.2%. For the molecule `C=C(C)n1c(=O)n(C(=O)CCC)c2cc([N+](=O)[O-])ccc21`, in the assay on Botrytis cinerea [2], the inhibition at 50 µg/mL was 46.7%.

Consider `C=C(C)n1c(=O)n(C(=O)c2ccc(Cl)cc2)c2cc(Br)cnc21`, for which the inhibition at 25 µg/mL in the assay on Botrytis cinerea [1] came to 54%. Moreover, the inhibition at 50 µg/mL in the assay with Botrytis cinerea [2] was determined as 28.6%. For `C=C(C)n1c(=O)n(C(=O)CCC)c2ccc([N+](=O)[O-])cc21`, in the assay on Botrytis cinerea [2], the inhibition at 50 µg/mL amounted to 52.4%. Consider `C=C(C)n1c(=O)n(C(=O)c2ccccc2C)c2cc(Br)cnc21`, for which the inhibition at 25 µg/mL in the assay with Botrytis cinerea [1] came out at 53.7%. For the same molecule, in the assay with Botrytis cinerea [2], the inhibition at 50 µg/mL turned out to be 49%.

In the case of `C=C(C)n1c(=O)n(C(=O)CCCC)c2cc(Br)cnc21`, the inhibition at 25 µg/mL with Botrytis cinerea [1] amounted to 60.1%. For the same molecule, the inhibition at 50 µg/mL with Botrytis cinerea [2] stood at 59.2%. Consider `C=C(C)n1c(=O)n(C(=O)CC)c2cc([N+](=O)[O-])ccc21`, for which, in the assay on Botrytis cinerea [2], the inhibition at 50 µg/mL stood at 45.2%. Take `C=C(C)n1c(=O)n(C(=O)c2cccc(Cl)c2)c2ccc([N+](=O)[O-])cc21`: the inhibition at 25 µg/mL in the assay on Botrytis cinerea [1] came to 16.7%. The inhibition at 50 µg/mL with Botrytis cinerea [2] is 86.2%.

As for `C=C(C)n1c(=O)n(C(=O)c2ccccc2)c2cc(Br)cnc21`, the inhibition at 25 µg/mL with Botrytis cinerea [1] was 37.2%. The inhibition at 50 µg/mL in the assay with Botrytis cinerea [2] stood at 38.8%. For `C=C(C)n1c(=O)n(C(=O)c2ccccc2C)c2cc([N+](=O)[O-])ccc21`, in the assay with Botrytis cinerea [2], the inhibition at 50 µg/mL was 60.8%. Turning to `C=C(C)n1c(=O)n(C(=O)c2ccccc2C)c2ccc([N+](=O)[O-])cc21`, in the assay on Botrytis cinerea [1], the inhibition at 25 µg/mL amounted to 18.5%. For the same molecule, the inhibition at 50 µg/mL with Botrytis cinerea [2] was determined as 68.3%. As to `C=C(C)n1c(=O)n(C(=O)CCCC)c2cc([N+](=O)[O-])ccc21`, the inhibition at 25 µg/mL in the assay with Botrytis cinerea [1] amounted to 7.26%. In the assay with Botrytis cinerea [2], the inhibition at 50 µg/mL stood at 48.5%. As to `C=C(C)n1c(=O)n(C(=O)CCCCCCC)c2ccc([N+](=O)[O-])cc21`, in the assay with Botrytis cinerea [2], the inhibition at 50 µg/mL is 32.5%. For the molecule `C=C(C)n1c(=O)n(C(=O)Cc2ccccc2)c2cc(Br)cnc21`, in the assay with HeLa, the inhibition entry was “Active”. For the same molecule, the inhibition at 25 µg/mL in the assay with Botrytis cinerea [1] came to 66.7%. In addition, the inhibition at 50 µg/mL with Botrytis cinerea [2] is 59.2%.

For the molecule `C=C(C)n1c(=O)n(C(=O)c2ccccc2Cl)c2cc([N+](=O)[O-])ccc21`, in the assay with Botrytis cinerea [2], the inhibition at 50 µg/mL was found to be 59.2%. For `C=C(C)n1c(=O)n(C(C)=O)c2ccc([N+](=O)[O-])cc21`, the inhibition at 25 µg/mL in the assay with Botrytis cinerea [1] amounted to 97.7%. Also, the inhibition at 50 µg/mL with Botrytis cinerea [2] came out at 100%. The IC50 is the concentration needed to halve the response being measured. As to `NC1(c2ccc(-c3nc4ccn5c(=O)[nH]nc5c4cc3-c3ccccc3)cc2)CCC1` [MK-2206], in assay [3], the IC50 came out at 22.8 nM. Turning to `C=C(C)n1c(=O)n(C(=O)CC)c2ccc([N+](=O)[O-])cc21`, in the assay with Botrytis cinerea [1], the inhibition at 25 µg/mL was 8.72%. Besides, the inhibition at 50 µg/mL with Botrytis cinerea [2] amounted to 49.6%. `CO/C=C(/C(=O)OC)c1ccccc1Oc1cc(Oc2ccccc2C#N)ncn1` [AZOXYSTROBIN]: the inhibition at 5 µg/mL was found to be 92.1% in the assay on Botrytis cinerea [4] and 98.8% with Botrytis cinerea [5]. With `C=C(C)n1c(=O)n(C(=O)CCCCC)c2ccc([N+](=O)[O-])cc21`, the inhibition at 50 µg/mL in the assay on Botrytis cinerea [2] is 55.9%.

Turning to `C=C(C)n1c(=O)n(C(=O)c2cccc(Cl)c2)c2cc([N+](=O)[O-])ccc21`, the inhibition at 25 µg/mL in the assay with Botrytis cinerea [1] worked out at 10.7%. The inhibition at 50 µg/mL in the assay on Botrytis cinerea [2] was determined as 63.4%. The matching figures for `C=C(C)n1c(=O)n(C(=O)c2cccc(C)c2)c2ccc([N+](=O)[O-])cc21`: 11.4% and 65.8%.

Consider `C=C(C)n1c(=O)n(C(=O)CCCCCCC)c2cc(Br)cnc21`, for which the inhibition at 25 µg/mL in the assay on Botrytis cinerea [1] was found to be 51.3%. For the same molecule, in the assay on Botrytis cinerea [2], the inhibition at 50 µg/mL was found to be 49%. On to `C=C(C)n1c(=O)n(C(=O)CCCC)c2ccc([N+](=O)[O-])cc21`, for which, in the assay on Botrytis cinerea [2], the inhibition at 50 µg/mL worked out at 51.8%. Regarding `C=C(C)n1c(=O)n(C(=O)c2ccccc2Cl)c2ccc([N+](=O)[O-])cc21`, the inhibition at 25 µg/mL in the assay with Botrytis cinerea [1] came out at 13.6%. Moreover, the inhibition at 50 µg/mL with Botrytis cinerea [2] worked out at 72.1%.

Turning to `C=C(C)n1c(=O)n(C(=O)CCC)c2cc(Br)cnc21`, the inhibition at 25 µg/mL with Botrytis cinerea [1] stood at 97.3%. In addition, the inhibition at 50 µg/mL with Botrytis cinerea [2] is 99%. `C=C(C)n1c(=O)n(C(=O)CC)c2cc(Br)cnc21`: the inhibition at 25 µg/mL in the assay on Botrytis cinerea [1] is 94.2%. Besides, the inhibition at 50 µg/mL in the assay with Botrytis cinerea [2] worked out at 98%. For the molecule `C=C(C)n1c(=O)n(C(=O)c2cccc(C)c2)c2cc(Br)cnc21`, the inhibition at 25 µg/mL with Botrytis cinerea [1] was 41.5%. Besides, in the assay with Botrytis cinerea [2], the inhibition at 50 µg/mL was 17.4%. As for `C=C(C)n1c(=O)n(C(=O)c2ccccc2Cl)c2cc(Br)cnc21`, in the assay on Botrytis cinerea [1], the inhibition at 25 µg/mL is 17.5%. Also, the inhibition at 50 µg/mL in the assay on Botrytis cinerea [2] was determined as 13.3%. `C=C(C)n1c(=O)n(C(=O)CCCCC)c2cc(Br)cnc21`: in the assay on Botrytis cinerea [1], the inhibition at 25 µg/mL was 42.5%. Further, the inhibition at 50 µg/mL with Botrytis cinerea [2] was determined as 23.5%.

In the case of `COC(=O)Nc1nc2ccccc2[nH]1` [CARBENDAZIM], in the assay with Botrytis cinerea [5], the inhibition at 5 µg/mL turned out to be 94.2%. On to `C=C(C)n1c(=O)n(C(=O)CCCCCCC)c2cc([N+](=O)[O-])ccc21`, for which the inhibition at 50 µg/mL with Botrytis cinerea [2] was found to be 30.7%. Consider `C=C(C)n1c(=O)n(C(=O)CCCCCC)c2cc(Br)cnc21`, for which the inhibition at 25 µg/mL in the assay with Botrytis cinerea [1] is 44.9%. Besides, in the assay on Botrytis cinerea [2], the inhibition at 50 µg/mL was found to be 59.2%. The like results for `C=C(C)n1c(=O)n(C(=O)c2cccc(Cl)c2)c2cc(Br)cnc21` were, in that order, 55.8% and 59.2%. Take `C=C(C)n1c(=O)n(C(=O)c2cccc(C)c2)c2cc([N+](=O)[O-])ccc21`: the inhibition at 50 µg/mL in the assay on Botrytis cinerea [2] is 60.2%. In the case of `C=C(C)n1c(=O)n(C(=O)CCl)c2cc(Br)cnc21`, in the assay with HeLa, the inhibition result is “Active”. Besides, the inhibition at 25 µg/mL with Botrytis cinerea [1] is 69%. Moreover, the inhibition at 50 µg/mL with Botrytis cinerea [2] amounted to 74.9%. On to `C=C(C)n1c(=O)n(C(=O)C2CC2)c2cc(Br)cnc21`, for which the inhibition at 25 µg/mL in the assay with Botrytis cinerea [1] amounted to 92.8%. For the same molecule, the inhibition at 50 µg/mL in the assay on Botrytis cinerea [2] turned out to be 78.6%.

The values above are taken from ChEMBL document CHEMBL4177654, “Synthesis, antifungal and antitumor activity of two new types of imidazolin-2-ones” (Bioorg Med Chem, 2017).
